Row | Compound | melting point
1 | CCC1N=C(c2ccccc2Cl)c2cc(CC(=O)OC)sc2NC1=S (stereo not drawn) | 199 to 200 °C
2 | COc1cc(C=CC(=O)OC2CC3CC(OC(=O)c4cc(OC)c(OC)c(OC)c4)CC2N3C)cc(OC)c1OC (stereo not drawn) | 40 to 42 °C
3 | COc1c(C2CCN(CCCCNC(=O)c3ccc(-c4ccc(Cl)cc4)nc3)CC2)ccc2c1CCCC2 | 184 to 186 °C
4 | Nc1c(F)c(N2CCC(n3ccnn3)C2)c(F)c2c1c(=O)c(C(=O)O)cn2-c1ccc(F)cc1F (stereo not drawn) | 308 to 309 °C
5 | N#Cc1ccc(O[C@@H]2c3ncccc3C[C@H]2N2CCC[C@@H](N)C2)c(Cl)c1 | 180 °C
6 | CC(C)(C)OC(=O)N1CCn2c(Br)c(-c3cccc(F)c3)c(C(N)=O)c2C1 | 168 to 174 °C
7 | COC(=O)C(C)(O)c1ccc(-c2ccccc2)c(F)c1 (stereo not drawn) | 59 to 61 °C
8 | Nn1c(C(F)(F)F)ccc(-c2ccc(Cl)cc2Cl)c1=O | 98 to 100 °C
9 | CCOP(=O)(OCC)c1ccc(NC(=O)CCc2oc(-c3ccccc3)nc2-c2ccc(Cl)cc2)cc1 | 139 to 140 °C
10 | O=C(O)Cc1cc(OCc2cccc(Oc3ccccc3)c2)ccc1Nc1c(Cl)cccc1Cl | 116 to 117 °C
11 | CC(O)c1cc(C(C)O)cc(S(N)(=O)=O)c1 (stereo not drawn) | 175 to 177 °C
12 | Cc1cc(COc2ccc(S(=O)(=O)NC[C@@H](C(=O)NO)N3CCN(Cc4ccccc4)CC3)cc2)c2ccccc2n1 | 188 °C
13 | CNC(=O)N(N)c1nnc(C(F)(F)F)s1 | 181 to 182 °C
14 | CN(CCC#N)C(=O)c1nc(Cl)c(Cl)[nH]1 | 184 °C
15 | O=C(CCCCCCCCCCCCCCCO)OCOC(=O)CCCCCCCCCCCCCCCO | 96.2 °C
16 | CCNC(=S)Nc1ccccc1N1CCOCC1 | 118 to 120 °C
17 | COc1ccc2c(c1)CC(C)(CN1CCC(c3ccccc3)CC1)NC2=O (stereo not drawn) | 93 to 95 °C
18 | CC(C)[C@H](NC(=O)N(C)Cc1ccccn1)C(=O)N[C@@H](Cc1ccccc1)[C@@H](O)C[C@H](Cc1ccccc1)NC(=O)OCc1cccnc1 | 69 to 71 °C
19 | O=Cc1cccc2c1OC(c1ccccc1)CC2=O (stereo not drawn) | 112 to 113 °C
20 | O=C(CCCCl)c1ccc2ccccc2c1 | 43 to 44 °C
21 | CN1C[C@H](CN2CCN(C(c3ccccc3)c3ccccc3)CC2)C=C2c3cccc4c3c(cn4C)C[C@H]21 | 172 to 175 °C
22 | CS(=O)C1C=Nc2cc(Br)ccc2C1=O (stereo not drawn) | 255 to 256 °C
23 | CC(C)=NOCc1nc2c(N)nc3ccccc3c2n1CCNC(=O)NC(C)C | 230 to 231 °C
24 | NS(=O)(=O)c1ccc(S(=O)(=O)CC(O)CO)cc1 (stereo not drawn) | 140 to 147 °C
25 | COc1ccc(NC(=O)c2ccc(Br)o2)cc1N1CCN(C)CC1 | 125 to 127 °C

Row | Compound | melting point
26 | Cc1cc(C(O)=S)cc(N)c1Cl | 225 °C
27 | Fc1ccc(-n2nc(-c3cccc(C(F)(F)F)c3)c3ncccc3c2=S)cc1 | 214 to 215 °C
28 | COc1ccccc1C(Cl)=C(Cl)n1ccnc1 | 101 °C
29 | Cc1ccc2cccc(OCC(=O)c3ccccc3)c2n1 | 70 to 71 °C
30 | CSC(C)(C(=O)O)c1cccc(Oc2ccccc2)c1 (stereo not drawn) | 87 to 88 °C
31 | CCC(=CC(COC(N)=O)=NO)C(C)[N+](=O)[O-] (stereo not drawn) | 69 to 72 °C
32 | CNC(=O)C1SCOC(=NO)S1 (stereo not drawn) | 99 to 102 °C
33 | Cc1nc(N)nc(N[C@@H]2CCc3ccccc32)n1 | 94 to 96 °C
34 | CCN(CC)c1ccc(N2C[C@H](CNC(=O)c3ccc(Cl)s3)OC2=O)cc1 | 181 °C
35 | CNC(=NC#N)NCCSCc1ccc(CN(C)C)o1 | 79 to 81.5 °C
36 | O=C(O)c1csnc1-c1ccc(Cl)cc1 | 182 °C
37 | CCc1ccc2oc(C(=O)Nc3ccc(-c4ccc(S(=O)(=O)NC(C(=O)O)C(C)C)cc4)cc3)c(C)c2c1OC (stereo not drawn) | 225 to 228 °C
38 | CCCc1nn(C)c2c(=O)[nH]c(-c3ccc(OC)c(OC)c3)nc12 | 210 to 212 °C
39 | CN1C(=O)N(C[C@@H]2COC(=O)[C@@H]2CC2CCCC2)C(=O)C1(C)C (racemic) | 71 to 74 °C
40 | C=CCn1c(C)c(C)c2cnnc(CCc3ccc(F)cc3)c21 | 123 to 124 °C
41 | CNC(=O)CC1=CSC2=C(C(=O)OC(C)C)C(C)CN12 (stereo not drawn) | 203 to 205 °C
42 | CC(c1oc2ccccc2c(=O)c1-c1cccc(F)c1)n1nc(-c2cccc(OC(F)F)c2)c2c(N)ncnc21 (stereo not drawn) | 176 to 179 °C
43 | CC=CCn1c(C)c(CC)c2cnnc(OCc3ccc(F)cc3)c21 | 78 to 83 °C
44 | CNC(=NCCSCc1[nH]cnc1C)NS(C)(=O)=O | 133 to 134 °C
45 | COc1nc(C(F)(F)F)c(F)c(=O)n1-c1cc(OC(C)C)c(Cl)cc1F | 144 to 146 °C
46 | CC(C)OC(=O)c1nc(Cl)sc1Cl | 46 °C
47 | O=S(=O)(Nc1cc(Cl)cc(Cl)c1)c1cc(Br)ccc1O | 158 to 159 °C
48 | Cc1cc(C=NO)cc(Oc2nc(Cl)nc(Cl)c2C(C)C)c1 | 185 to 187 °C
49 | CON1C(C)(C)CC(OC(=O)c2cccc(C(=O)OC3CC(C)(C)N(OC)C(C)(C)C3)c2)CC1(C)C | 99 to 101 °C
50 | CS(=O)(=O)c1ccc(-n2cc(C(F)(F)F)nc2-c2ccc(-c3cccs3)cc2)cc1 | 95 to 97 °C

Row | Compound | melting point
51 | COC(=O)c1cc(C)sc1NC(=O)Cc1ccccc1 | 107 to 109 °C
52 | Nc1c([N+](=O)[O-])sc2c(Cl)cc(Cl)cc12 | 290 to 292 °C
53 | CCCC(=O)c1cnc2cc(COC(=O)c3ccccc3)ccc2c1Cl | 66 to 68 °C
54 | CC(C)N1CCC(C(=O)OC2c3ccccc3C(=O)N2c2ccc3ccc(Cl)nc3n2)CC1 (stereo not drawn) | 184 °C
55 | Brc1cncc(C2CCCCN2)c1 (stereo not drawn) | 97 to 97.5 °C
56 | NC(=O)c1ccc(-c2cccc3cc(Cc4cc(F)cc(Cl)c4)sc23)cc1 | 202 to 203 °C
57 | CS(=O)c1ccc(C(=O)CCCCC#N)cc1 (stereo not drawn) | 89.5 to 91.5 °C
58 | CC(C)(C)C1CCC(OO)(OO)CC1 | 83 to 84 °C
59 | COC(=O)CC[C@H]1CC[C@H](NC(=O)N(NC=O)c2ccc(C#N)cc2)CC1 | 140 to 142 °C
60 | CONC(=O)Nc1ccc(-c2sc3c(c2CN(C)C(C)(C(=O)O)c2ccccc2)c(=O)n(-c2ccccc2)c(=O)n3Cc2c(F)cccc2F)cc1 (stereo not drawn) | 147 to 149 °C
61 | CC=CCn1c(C)c(C)c2cnnc(OCc3ccc(OC(F)F)cc3)c21 | 109 to 110 °C
62 | O=[N+]([O-])c1ccc(OC2SCC(O)C(O)C2O)cc1 (stereo not drawn) | 130 to 132 °C
63 | COc1ccc2c(c1)C(c1ccccc1)C(=O)NCC2 (stereo not drawn) | 155 to 170 °C
64 | C[C@H](c1ccccc1)n1c(O)nc2c(N)nc3ccccc3c21 | > 250 °C
65 | CC1(C)C(Cl)C(=O)C1CC(Cl)(Cl)Cl (stereo not drawn) | 56 to 57 °C
66 | CCOC(=O)CCCCOc1ccc(OC)c(OC)c1C=O | 105 to 107 °C
67 | CON=C1CCC1N1CCC(Cc2ccc(Cl)cc2)CC1 (stereo not drawn) | 127 to 128 °C
68 | CC(C)(C)Nc1nc2cc(Cl)c(Cl)cc2[nH]1 | 219 to 221 °C
69 | CCCCCCOc1ccc(NC(=O)NCCC(C)(C)C)cc1 | 103 to 104 °C
70 | COc1cc(-c2cc(C(F)(F)F)nn2-c2ccc(S(C)(=O)=O)cc2)ccc1-c1ccco1 | 138 to 140 °C
71 | CCOC(=O)C1=Cc2cc(Cl)cc(-c3nc4ccccc4[nH]3)c2OC1C(F)(F)F (stereo not drawn) | > 300 °C
72 | OCc1cc(Nc2nc(-c3ccccc3)nc3ccccc23)[nH]n1 | 238 to 239 °C
73 | O=C1CCC(N2C(=O)c3ccc(CNC(=O)c4ccco4)cc3C2=O)C(=O)N1 (stereo not drawn) | 180 to 182 °C
